Assay results published in patent publication US9790541B2, “Methods and compositions for labeling nucleic acids” (President and Fellows of Harvard College, priority 2005, dated 2017).

Key:
[1] = test system: HeLa cells; experiment: Labeling of HeLa cells with EdU, fixed/permeabilized, stained with Xrhodamine-azide; assay type: cell-based; conditions: 1 μM EdU; cell in anaphase; labeling pulse shorter than DNA replication time
Description: Ethynyl-dU (EdU) was used in tissue culture media (DMEM complemented with penicillin, streptomycin, and fetal calf serum (FCS)) ranging from 10 nM to 1 μM depending on the length of the labeling pulse. For example, if cells to be labeled were synchronized in the S phase, 100 nM to 1 μM of EdU was used for 1 to 2 hours. After labeling, the cells were washed 3 or 4 times with PBS and then tissue culture media was added.
Staining Solution: 100 mM Tris pH 8.5 (from 2 M stock in water), 0.5 to 1 mM CuSO4 (from 1 M stock in water), 0.5 to 1 μM fluorophore-azide (from approximately 10-100 mM stock in DMSO), and water (as required) were mixed together. Ascorbic acid (from a […] stock in water) was then added to this solution to a final concentration of 50-100 mM, and the resulting staining solution is mixed thoroughly using a vortex.
Cells can be fixed by any suitable method, e.g., cells can be fixed by aldehyde fixation (formaldehyde or glutaraldehyde), with or without permeabilization. After fixation, the cells were washed in buffer with or without non-ionic detergent (0.2-0.5% Triton X100). Before staining, cells were rinsed with buffer without detergent (PBS or TBS). The cells were then incubated in the presence of the staining solution for at least 30 minutes. Overnight staining is preferably performed in a cold room.

[2] = test system: HeLa cells; experiment: Staining of EdU-labeled live cells with TMR-propyl-azide, time-lapse fluorescence microscopy; assay type: cell-based; conditions: 200 nM TMR-propyl-azide, 37° C., FIG. 7
Description: Ascorbic acid (from a […] stock in water) was then added to this solution to a final concentration of 50 mM, and the resulting staining solution is mixed thoroughly.
Washes with methanol or ethanol may be performed to obtain low background
To facilitate live microscopic imaging, EdU-labeled cells were plated in coverslip chambers which were mounted on the heated stage (37° C.) of an inverted Nikon TE200)U microscope equipped for wide-field fluorescence microscopy as well as spinning-disk confocal fluorescence microscopy (Yokogama spinning disk confocal head from Perkin-Elmer). […] The cells were imaged by time-lapse fluorescent microscopy (one frame every 15 seconds) to detect the TMR signal accumulating in the nuclei of the EdU-labeled cells.

[3] = test system: mouse intestine and brain; experiment: In vivo labeling with EdU, organ sections stained with Xrhodamine-azide and Hoechst; set-up: species or system mice; conditions: 200 micrograms EdU intraperitoneally, organs harvested three days later
Description: BLAB/C mice were injected with 200 micrograms of EdU intraperitoneally. Three days later, organs were harvested, fixed, embedded in paraffin and sectioned. The sections were then de-waxed and stained with Xrhadomine-azide for 5 minutes, stained with Hoechst, washed and then mounted.

[4] = test system: HeLa cells; experiment: Tracing a single sister chromatid: EdU pulse, chase of two cell cycles, Alexa568-azide staining; assay type: cell-based; conditions: EdU pulse during DNA synthesis, Alexa568-azide stain
Source text: The purpose of the experiment reported herein was to label only one DNA molecule of the two that form a chromosome. That was accomplished by pulsing HeLa cells with EdU during DNA synthesis followed by a chase lasting two cell cycles, as depicted on FIG. 12. […] EdU allowed very nice resolution imaging of chromosomes in cells as shown by FIG. 13.

Structure (SMILES): C#Cc1cn([C@H]2C[C@H](O)[C@@H](CO)O2)c(=O)[nH]c1=O [EdU, 5-ethynyl-2′ deoxyuracil]
- DNA labeling by EdU in HeLa cells [1]: only the DNA replicating during the pulse was labeled
- EdU detection over time (DNA staining intensity) [2]: complete within minutes
- EdU-labeled cells in intestine section ([3]; FIG. 8): cells with red nuclei are the cells which incorporated EdU
- EdU-labeled cells in brain section ([3]; FIG. 10): sole EdU-labeled cell
- DNA molecules of a chromosome labeled, first mitosis after labeling [4]: both DNA molecules were labeled
- DNA molecules of a chromosome labeled, second mitosis [4]: only one DNA molecule was labeled
